# Measured values from PubChem BioAssay (NCI).
# “And” between values parts separate entries of the source, which are not always exact repeats. Equal entries are not always repeated.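 Each compound was tested at five concentrations against cells in 96-well plates for 48 hours. Here, GI50 denotes the concentration required for 50% inhibition of growth. Definition used: TGI = concentration required for complete inhibition of growth.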
# Key:
# Experiment in all cases: NCI tumour cell line growth inhibition, 48 h
# [1] = test system: CAKI-1 renal
# [2] = test system: HCT-116 colon
# [3] = test system: HS 578T breast
# [4] = test system: MCF7 breast
# [5] = test system: NCI-H23 lung
# [6] = test system: SK-MEL-2 melanoma
# [7] = test system: T-47D breast
# [8] = test system: TK-10 renal
# [9] = test system: U251 CNS
# [10] = test system: UACC-62 melanoma
# [11] = test system: MALME-3M melanoma
# [12] = test system: MDA-N
Structure (SMILES),TGI [1] [µM],TGI [2] [µM],TGI [3] [µM],TGI [4] [µM],TGI [5] [µM],TGI [6] [µM],TGI [7] [µM],TGI [8] [µM],TGI [9] [µM],TGI [10] [µM],TGI [11] [µM],TGI [12] [µM],GI50 [4] [µM],GI50 [12] [µM],GI50 [5] [µM],GI50 [7],GI50 [1] [µM],GI50 [11] [µM],GI50 [8] [µM],GI50 [10] [µM]
CCOC(=O)[C@H]1C[C@@H](C(=O)c2ccccc2)N2N=C(c3ccc(Br)cc3)C=C[C@H]12,> 100,> 100,> 100,> 100,> 100,> 100,> 100,> 100,> 100,> 100,,,,,,,,,,
C1=CCN(c2ccccc2)CC1,,> 100,,,> 100,> 100,,> 100,> 100,> 100,46.8,,,,,,,,,
N[C@@H]1C[C@H](N)c2c(Cl)sc(Cl)c21,> 100,> 100,,> 100,> 100,> 100,> 100,,> 100,> 100,,> 100,,,,,,,,
Cc1nc2ccccc2nc1NS(=O)(=O)c1ccc(N)cc1,> 100,,,,> 100,> 100,,> 100,> 100,> 100,> 100,,,,,,,,,
NN/C(=N\S(=O)(=O)c1cc(Cl)c(Oc2ccc([N+](=O)[O-])cc2Cl)c(Cl)c1)Nc1ccc(Cl)cc1,40.7,29.1,,58.4,31.4,35.3,56.5,56.6,30.8,28.8,37.2,33,,,,,,,,
O=C(CCN(CCO)CCO)Nc1ccc2c(c1)C(=O)c1ccc(NC(=O)CCN(CCO)CCO)cc1C2=O,32.2,33.2,,,> 100,16.8,,> 100,> 100,27.8,27.9,,,,,,,,,
Cc1ccc(-c2c(C#N)c(-c3ccc(N(C)C)cc3)c(C#N)c(=O)n2NS(=O)(=O)c2ccccc2)cc1,98.3,> 100,> 100,> 100,,> 100,,> 100,> 100,> 100,> 100,> 100,,,,,,,,
CN(C)c1ccc(C2CC(=O)CC(c3ccc(N(C)C)cc3)C23C(=O)NC(=O)NC3=O)cc1 (stereo not drawn),> 25,> 25,,> 25,> 25,> 25,> 25,> 25,> 25,> 25,> 25,> 25,,,,,,,,
COc1ccc(NS(=O)CCc2ccccc2)cc1 (stereo not drawn),> 100,> 100,> 100,> 100,> 100,,,> 100,> 100,,> 100,> 100,,,,,,,,
CCOc1ccc(NCC(=O)N2CC(=O)Nc3ccccc32)cc1,> 100,> 100,,,> 100,> 100,,> 100,> 100,> 100,> 100,,,,,,,,,
CCCCOC(=O)/C(CC(=O)C=C(C)C)=N\NS(=O)(=O)c1ccc(C)cc1,> 100,> 100,,,> 100,> 100,,> 100,> 100,> 100,> 100,,,,,,,,,
CCN(CC)CCCCC1CCN(CC(=O)N2c3ccccc3NC(=O)c3ccccc32)CC1,> 100,> 100,,,> 100,> 100,,> 100,,> 100,> 100,,,,,,,,,
CC(=O)Nc1ccc(-c2nnc(SCC(=O)Nc3ccccc3Cl)o2)cc1,> 100,> 100,,,> 100,> 100,,> 100,> 100,,> 100,,,,,,,,,
O=c1c2cc(I)ccc2nc(-c2cccs2)n1Nc1ccccc1,65.9,> 100,,> 100,91,1.63,,,> 100,> 100,,,1.99,,,,,,,
C1CSCC2(COC2)CS1,,> 100,> 100,> 100,> 100,,,> 100,> 100,,,> 100,,,,,,,,
COc1ccc(/C=C2/C(=O)N(C(=O)c3ccc(Cl)cc3)N=C2C)cc1OC,> 100,> 100,,,> 100,> 100,,> 100,> 100,> 100,> 100,,,,,,,,,
CC(=NNC(=S)Nc1ccccc1C)c1cccc(C(C)=NNC(=S)Nc2ccccc2C)n1,> 100,> 100,,> 100,> 100,> 100,> 100,> 100,> 100,> 100,76.9,> 100,,,,,,,,
O=C(O)Cc1cc(=O)oc2cc(O)c(Cl)cc12,> 100,> 100,,,> 100,> 100,,> 100,> 100,> 100,> 100,,,,,,,,,
COC(=O)/C=C/c1cc(OC)c2c(c1)C(C(=O)OC)C(c1ccc(OC)c(OC)c1)O2 (stereo not drawn),> 100,> 100,,> 100,> 100,> 100,> 100,> 100,> 100,> 100,> 100,> 100,,30.6,> 100,39.9 µM and 4.16 µM,,,,
CSc1nc(C)cc(Nc2ccc(O)c(CN3CCCCC3)c2)n1,> 100,> 100,> 100,> 100,> 100,,> 100,,,> 100,> 100,75.4,,,,,,,,
Clc1cc(Cl)cc(N2N=C(c3cccc(Nc4ccncc4)c3)CC2c2ccccc2)c1 (stereo not drawn),3.36,,,,3.91,,4.2,3.98,,3.24,3.16,,,,1.81,1.73 µM,1.57,1.67,2.02,1.74
CCn1c(=O)c2c(=O)[nH][nH]c2c2ccccc21,,> 100,> 100,> 100,> 100,,,> 100,> 100,,> 100,> 100,,,,,,,,
COc1ccc2c(OC)c3ccoc3nc2c1O,> 100,> 100,,,> 100,> 100,,> 100,> 100,> 100,> 100,,,,,,,,,

Structure (SMILES),TGI [1] [µM],TGI [2] [µM],TGI [3] [µM],TGI [4] [µM],TGI [5] [µM],TGI [6] [µM],TGI [7] [µM],TGI [8] [µM],TGI [9] [µM],TGI [10] [µM],TGI [11] [µM],TGI [12] [µM],GI50 [4] [µM],GI50 [12] [µM],GI50 [5] [µM],GI50 [7],GI50 [1] [µM],GI50 [11] [µM],GI50 [8] [µM],GI50 [10] [µM]
Cn1c(=O)nc2n(CCO)c(-c3ccccc3)c(-c3ccccc3)nc-2c1=O,> 100,> 100,> 100,,> 100,> 100,> 100,> 100,> 100,> 100,> 100,> 100,,,,,,,,
O=C(Nc1ccc(C(F)(F)F)cc1[N+](=O)[O-])C(=O)C(C(=O)c1ccc2ccccc2c1)C1OC(=O)c2ccccc21 (stereo not drawn),41.7,15.3,,,12.1,29.9,,35,17.5,20.4,25.8,,,,,,,,,
COc1ccc(CCN2CCC(C#N)(c3ccc(OC)c(OC)c3)CC2)cc1OC,,> 100,,,> 100,> 100,,> 100,> 100,> 100,> 100,,,,,,,,,
COc1cc(C2c3cccc4cccc(c34)C3CCC(=O)N32)cc(O)c1O (stereo not drawn),,> 50,,> 50,> 50,> 50,> 50,,> 50,> 50,,> 50,,,,,,,,
O=C1/C(=C/c2cccc([N+](=O)[O-])c2)COc2ccccc21,> 100,3.16,,,18.2,20,,> 95.2,6.83,3.19,> 50.6,,,,,,,,,
CC1=NC(=Cc2ccc(Cl)cc2)C(=O)N1n1c(-c2ccccc2)nc2ccccc2c1=O,69.1,> 100,57.3,> 100,96,,74.3,> 100,,> 100,> 100,> 100,,,,,,,,
Oc1ccccc1C=Nc1ccc(Oc2ccc(Cl)cc2)c(Cl)c1,95.4,40.1,52.5,> 100,45.4,32.4,40.1,> 100,50.5,49.6,44.2,,,,,,,,,
COc1ccc2c(c1)c(Cc1c(C)n(C)c3ccc(OC)cc13)c(C)n2C,> 100,> 100,,,> 100,> 100,,> 100,> 100,> 100,> 100,,,,,,,,,
C/C(C=O)=N\Nc1cc(C)c2ccccc2n1,30.7,27.6,46.2,29.5,25.9,37.8,39.9,29.5,31.2,28.2,,,,,,,,,,
Nc1ccc(N=Nc2ccc(/C=C/c3ccc(N=Nc4ccc(N)c5ccc(S(=O)(=O)O)cc45)cc3S(=O)(=O)O)c(S(=O)(=O)O)c2)c2cc(S(=O)(=O)O)ccc12,,> 100,,> 100,> 100,> 100,,,> 100,> 100,> 100,,,,,,,,,
c1ccc(C2=NN(c3ccccc3)C3(S2)SC(c2ccccc2)(c2ccccc2)c2ccccc23)cc1 (stereo not drawn),> 100,> 100,,,> 100,> 100,,> 100,> 100,> 100,> 100,,,,,,,,,
O=C1/C(=C/c2cccc([N+](=O)[O-])c2)CCCc2ccccc21,30.1,17.2,25.9,15.3,31.4,23,,30.8,20.9,21.6,22.2,22.7,,,,,,,,
COc1ccc(NC=O)c(C(O)CCNC(C)=O)c1 (stereo not drawn),> 100,> 100,> 100,> 100,> 100,> 100,> 100,> 100,> 100,> 100,,> 100,,,,,,,,
N#Cc1c(-c2ccccc2)c(C#N)c(=O)n(NS(=O)(=O)c2ccccc2)c1O,> 100,> 100,> 100,> 100,,> 100,,> 100,> 100,> 100,> 100,> 100,,,,,,,,
Cc1ccc(S(=O)(=O)N/N=C2\C(=O)C3CC2C(Cl)C3Cl)cc1 (stereo not drawn),> 100,> 100,,,> 100,,,> 100,> 100,> 100,> 100,,,,,,,,,
CN(C(=O)C1=CCCCCC1)c1ccccc1I,> 100,> 100,35.5,> 100,> 100,> 100,> 100,,> 100,> 100,,> 100,,,,,,,,
N#CCCc1nc2ccc(Br)cc2c(=O)n1-c1ccc(O)c([N+](=O)[O-])c1,92.6,,,,42,34.7,,> 100,,38.5,33.3,,,,,,,,,
O=S(=O)(CC1=NC2C=CC=CC2N=C1)NCc1ccccc1 (stereo not drawn),> 100,> 100,,,> 100,> 100,,> 100,> 100,> 100,> 100,,,,,,,,,
CC1C2CC(C(C3C(=O)C4CC3C(C)(C)C4C)C2=O)C1(C)C (stereo not drawn),> 100,> 100,> 100,> 100,> 100,,> 100,> 100,> 100,> 100,> 100,> 100,,,,,,,,
Oc1cn(-c2ccc(Cl)cc2)nc1-c1nnc(Nc2ccccc2)o1,> 100,29.6,51.2,33.9,27.3,38.3,50.3,38.1,34.1,30.6,50.1,,,,,,,,,
C/C(C=O)=C1\C(O)C[C@]1(C)C1CC(C)(C)CC1O (stereo partly drawn),> 100,> 100,,,> 100,> 100,,> 100,> 100,,> 100,,,,,,,,,
CSC1=N/C(=C\c2cccs2)C(=O)N1CN1CCCCC1,,> 100,> 100,> 100,> 100,> 100,,> 100,> 100,> 100,> 100,> 100,,,,,,,,
